# Laboratory results published in US20260125645A1, “METHODS AND PHARMACOLOGICAL AGENTS FOR INCREASING EXPANSION, ENGRAFTMENT OR IMMUNE OUTPUT OF HUMAN HEMATOPOIETIC STEM CELLS IN TRANSPLANTATION AND DISEASE SETTINGS” (VALORISATION HSJ, LIMITED PARTNERSHIP, priority 2022, published 2026).
# Columns and labels:
# Cord-blood CD34^+ cells = experiment: Ex vivo expansion of the CD34+ population from cord-blood CD34+ cells, counted by flow cytometry; format: cell-based, human; conditions: for expansion in CD34^+ population: UM171 40 nM, 10 days, SCF/TPO/FLT-3L StemSpan SFEM II
# Method: Cord-blood CD34^+ cells were cultured under manual fed-batch (FB) or modified air-liquid interface (ALI) conditions for 10 days. Cells were cultured in cytokine-containing (SCF, TPO, FLT-3L) serum-free media (StemSpan™ SFEM II) where UM171 (40 nM) was added. CD34^+ cells total number was assessed by flow cytometry using […] beads (BD).
# The progeny of 7,500 cord-blood CD34^+ cells was cultured under manual fed-batch (FB) conditions for 6 days and injected in irradiated adult NSG mice. Cells were cultured in cytokine-containing (SCF, TPO, FLT-3L) serum-free media (StemSpan SFEM II) where UM729 (500 nM) or a HTR1F-specific agonist LY573144 (250 nM final concentration) was added. The progeny of an equal number of CD34^+ cells cultured in the same conditions but without UM729 or LY573144 from the same source was used to determine baseline expansion (threshold indicated by the dotted line) and engraftment. Expansion fold, compared to untreated condition, of the CD34^+ population after 6 days of ex vivo culture is shown in the left panel. Human immune reconstitution was monitored in peripheral blood (middle panel) and bone marrow (right panel) at week 25 post-transplantation as described above. Mean percentage of human CD45 cell engraftment for 2 mice per condition is shown.
# An experimental setup was designed where oxygen exchange in the media would be maximized, while adopting the principles of fed-batch cultures (FB) in which medium is renewed and in sufficient quantity to provide nutrients while diluting cell waste. […] In doing so, the maximum of cells was placed directly at the air-liquid interface so that gas exchanges are more efficient. Briefly, HSC were enriched based on CD34 expression marker, from cord-blood units using the Miltenyi CD34 MicroBead Kit UltraPure according to manufacturer's instruction. Purity was determined by flow cytometry using monoclonal CD34-PE antibodies (Clone 581, BD Pharmingen, 555822). […]
# Using this culture method, the expansion of the stem cell population (defined as CD34^+ cells) in the culture wells after 10 days was first assessed. […]
# [1] = system: cord-blood CD34^+ cells (HSC); experiment: Human immune engraftment (% hCD45) in irradiated NSG mice injected with the progeny of ex vivo cultured cord-blood CD34+ cells
# Method: The progeny of 7,500 cord-blood CD34+ cells was cultured under modified air-liquid interface (ALI) conditions for 10 days and injected in irradiated adult NSG mice. Cells were cultured in cytokine-containing (SCF, TPO, FLT-3L) serum-free media (StemSpan™ SFEM, LDL) containing UM729 (40 nM) with or without the addition of aryl hydrocarbon receptor (AhR) receptor antagonist CH-223191 (1 μM). Human immune reconstitution, expressed by the percentage of human CD45 (hCD45) over total CD45, was monitored in peripheral blood after 7, 14 and 25 weeks post-transplantation by flow cytometry. Mean percentage of human CD45 cell engraftment for 2 mice per condition is shown. […]
# Since the ultimate aim is to improve the expansion of engraftable human HSC, the validation methods largely rely on the measurement of immune reconstitution, both short-term and long-term, after transplantation in a humanized mice model. Briefly, NSG mice (Jackson Laboratories, strain 005557) were sublethally irradiated at 2Gy 4 to 24 hours prior to CD34^+ cells intravenous (IV) injection. All harvested cells from 1 culture well were injected into one mouse. Wells from all conditions started with equal numbers of CD34^+ cells from the same source/donor. Therefore, all the progeny of a culture setting was injected into mice. Peripheral blood of humanized mice was harvested every 5 weeks, and human engraftment and immune reconstitution were analyzed by flow cytometry. The earliest point where human engraftment in mice was measured was after 5 weeks and the latest after 35 weeks. The impact of the ALI culture system on HSC engraftment capacity was assessed using base media purchased from STEMCELL Technologies (StemSpan SFEM). A dramatic effect of the ALI methodology on the engraftment of cord-blood HSC was observed relative to the published manual fed-batch culture methodology^4, which includes SCF, TPO, FLT3L and UM171 (FIG. 4).
# [2] = system: human CB CD34+ (HSC engraftment); experiment: In vivo administration of HTR1F agonist to NSG mice humanized with uncultured cord-blood CD34+ cells; human chimerism by flow cytometry; conditions: 0.3 mg (10 mg/kg) intraperitoneally at 6 h, 24 h, 48 h
# Method: 38,000 human CB CD34+ were injected intravenously into irradiated NSG mice (n=8, 16 hrs after irradiation). Starting from 6 hours post-transplantation, half of the mice (n=4) received, by intraperitoneal injection, 0.3 mg of Lasmiditan diluted in 0.02% DMSO in PBS (drug), for a total of 4 doses in regular intervals (6 h, 24 h, 48 h and 72 h) after human HSC injection. The second half (control) received I.P. injection of vehicle (0.02% DMSO in PBS) (n=4; vehicle). Human chimerism was assessed on peripheral blood until 19 weeks post-transplantation as described above, after which time mice were sacrificed and spleen and bone marrow were analyzed. SEM are depicted.
# Lasmiditan, purchased from AdooQ Bioscience (product number A14198), was dissolved in DMSO and ethanol solution. […] Purity and viability were assessed by flow cytometry using the following staining: CD34-APC (Biolegend 343510), CD19-PE (Biolegend, 302208), CD3-PE-Cy7 (Biolegend, 344816), CD45-APC-Cy7 (Biolegend, 368516), 7-AAD (BD Biosciences, 559925), 1 μL AnnV-FITC (Biolegend, 640906). […] The dose was determined based on previous work with LY344864 (used ex vivo above, FIG. 10) in kidney injury recovery studies^16 and is consistent with the dosage of Reyvow® (Lasmiditan) for the treatment of migraine. […]
# [3] = progeny of FB culture with LY573144 250 nM for 6 days, 25 weeks after injection
structure (smiles),measurement,setting,value
"CN1CCC(C(=O)c2cccc(NC(=O)c3c(F)cc(F)cc3F)n2)CC1 [LY573144, 2,4,6-Trifluoro-N-[6-[(1-methyl-4-piperidinyl)carbonyl]-2-pyridinyl]benzamide]",expansion of the CD34^+ population compared to untreated condition,"Cord-blood CD34^+ cells; LY573144 250 nM, FB culture, 6 days",two-fold
same,percentage of hCD45^+ cells in the blood,[1]; [3],higher percentages
same,percentage of hCD45^+ cells in the bone marrow,[1]; [3],higher percentages
same,presence of human immune cells (hCD45^+) in tissues of treated animals,"[2]; 72 h, analysed up to 19 weeks","found in blood, spleen and bone marrow"
same,reconstitution of the immune compartment (human chimerism),"[2]; 72 h after 38,000 CD34+ cells, followed to 19 weeks, vs vehicle",more robust reconstitution of the immune compartment
Cc1ccccc1N=Nc1ccc(NC(=O)c2ccnn2C)c(C)c1 [CH-223191],engraftment capacity of cultured HSC (% hCD45 in peripheral blood),"[1]; CH-223191 1 μM added to ALI culture containing UM729, 10 days, blood at 7, 14 and 25 weeks, vs without CH-223191",did not further increase the engraftment capacity
"CN(C)[C@@H]1CCc2[nH]c3ccc(NC(=O)c4ccc(F)cc4)cc3c2C1.Cl [LY344864, N-[(3R)-3-(Dimethylamino)-2,3,4,9-tetrahydro-1H-carbazol-6-yl]-4-fluorobenzamide hydrochloride]",peripheral blood engraftment (% hCD45),"[1]; LY344864 500 nM in StemSpan SFEM II with SCF/TPO/FLT-3L, 10 days, specifically ALI culture, vs media alone",greatly improved the peripheral blood engraftment
Cn1nnc(-c2ccc3c(c2)[nH]c2nc(Cc4ccccc4)nc(NC4CCC(N)CC4)c23)n1 (stereo not shown) [UM171],expansion in CD34^+ population,Cord-blood CD34^+ cells; ALI culture,~55 fold
same,expansion in CD34^+ population,Cord-blood CD34^+ cells; fed-batch (FB) culture,~55 fold
"N[C@@H](Cc1cc(I)c(Oc2ccc(O)c(I)c2)c(I)c1)C(=O)O [T3, triiodothyronine]",engraftment of HSC in humanized mice (% hCD45+ lymphocytes in peripheral blood),"[1]; T3 45 ng/mL in SCF/TPO/FLT3L StemSpan SFEM containing UM171, FB culture 10 days, vs UM171 alone or with CH-223191",increased the engraftment of HSC
